Reference: paper PMC10746112, “Synthesis and Pro-Apoptotic Effects of Nitrovinylanthracenes and Related Compounds in Chronic Lymphocytic Leukaemia (CLL) and Burkitt’s Lymphoma (BL)” (Molecules, 2023)
Values joined by “and” are separate entries in the source; they are usually repeats but may differ in a detail not shown here. Equal entries are not always repeated.

System: not given
Test: not given
Settings: not given

| Compound | melting point [°C] |
| --- | --- |
| CN(C)C(=O)c1c2ccccc2cc2ccccc12 [Compound 33b] | 150 to 152 |
| O=[N+]([O-])/C=C/c1c2ccccc2c(Br)c2ccccc12 [Compound 19h, (E)-9-Bromo-10-(2-Nitrovinyl)Anthracene] | 227 to 230 |
| N#CC(C#N)=Cc1c2ccccc2c(Cl)c2ccccc12 [Compound 23b, 2-((10-Chloroanthracen-9-yl)Methylene)Malononitrile] | 196 to 198 |

System: MUTU-I Burkitt’s lymphoma cell line
Test: not given
Settings: human, 24 h, 10 µM

| Compound | % Viable Cells Remaining MUTU-1 [%] |
| --- | --- |
| CN(C)C(=O)c1c2ccccc2cc2ccccc12 [Compound 33b] | 90.1 |
| O=[N+]([O-])/C=C/c1c2ccccc2c(Cl)c2ccccc12 [Compound 19d] | 7.61 |
| ClCc1c2ccccc2cc2ccccc12 [Compound 27, 9-(chloromethyl)anthracene] | 93.8 |
| CC/C(=C\c1c2ccccc2c(Cl)c2ccccc12)[N+](=O)[O-] [Compound 19f, (E)-9-chloro-10-(2-nitrobut-1-en-1-yl)anthracene] | 97.5 |
| C/C(=C\c1c2ccccc2c(Cl)c2ccccc12)[N+](=O)[O-] [Compound 19e] | 98.6 |

System: MUTU-I Burkitt’s lymphoma cell line
Test: not given
Settings: nitrostyrenes, 10 µM, 24 h; cited from earlier work

| Compound | % Viable Cells Remaining MUTU-1 24 h 10 µM [%] |
| --- | --- |
| C/C(=C\c1ccc(F)cc1)[N+](=O)[O-] [Compound 11c] | 19.06 |

Same assay, conditions: read-out: IC50 MUTU-I; previous work; cited from earlier work

| Compound | IC50 [nM] |
| --- | --- |
| O=[N+]([O-])/C(=C/c1ccc(Cl)cc1)Cc1ccc(Cl)cc1 [Compound 10c, reference compound] | 2970 |
| CC/C(=C\c1cc(Br)ccc1OC)[N+](=O)[O-] [Compound 10a, (E)-4-bromo-1-methoxy-2-(2-nitrobut-1-en-1-yl)benzene, reference compound] | 450 |
| COc1ccc2c(c1)OC(c1ccccc1)C([N+](=O)[O-])=C2 (centres unmarked) [Compound 10b, reference compound] | 470 |

System: DG-75 Burkitt’s lymphoma cell line
Test: not given
Settings: read-out: IC50 DG-75; previous work; cited from earlier work

| Compound | IC50 [nM] |
| --- | --- |
| O=[N+]([O-])/C(=C/c1ccc(Cl)cc1)Cc1ccc(Cl)cc1 [Compound 10c, reference compound] | 6390 |
| CC/C(=C\c1cc(Br)ccc1OC)[N+](=O)[O-] [Compound 10a, (E)-4-bromo-1-methoxy-2-(2-nitrobut-1-en-1-yl)benzene, reference compound] | 1410 |
| COc1ccc2c(c1)OC(c1ccccc1)C([N+](=O)[O-])=C2 (centres unmarked) [Compound 10b, reference compound] | 1920 |

System: MUTU-I Burkitt’s lymphoma cell line
Test: alamarBlue cell viability assay
Settings: 1 µM, 24 h

| Compound | % Viable Cells Remaining MUTU-1 [%] |
| --- | --- |
| N#CC(C#N)=Cc1c2ccccc2c(Cl)c2ccccc12 [Compound 23b, 2-((10-Chloroanthracen-9-yl)Methylene)Malononitrile] | 92.59 |

Same assay, conditions: 10 µM, 24 h

| Compound | % Viable Cells Remaining MUTU-1 |
| --- | --- |
| N#CC(C#N)=Cc1c2ccccc2c(Cl)c2ccccc12 [Compound 23b, 2-((10-Chloroanthracen-9-yl)Methylene)Malononitrile] | ~ 20% and 16.78% |

Same assay, conditions: MUTU-I, 24 h, read-out: % Viable Cells Remaining MUTU-1

| Compound | viability at 1 µM [%] | viability at 10 µM [%] |
| --- | --- | --- |
| N#CC(C#N)=Cc1c2ccccc2cc2ccccc12 [Compound 23a] | 91.9 | 65.3 |
| O=[N+]([O-])/C=C/c1cc2ccccc2c2ccccc12 [Compound 21, (E)-9-(2-Nitrovinyl)phenanthrene] | 73.6 | 1.68 |

Same assay, conditions: MUTU-I, 24 h, read-out: % Viable Cells Remaining MUTU-1, 1 µM, 24 h

| Compound | viability at 1 µM [%] |
| --- | --- |
| N#CCc1c2ccccc2cc2ccccc12 [Compound 28, 2-(anthracen-9-yl)acetonitrile] | 95.2 |
| CN(C)C(=O)c1c2ccccc2cc2ccccc12 [Compound 33b] | 91.4 |
| O=[N+]([O-])/C=C/c1c2ccccc2c(Cl)c2ccccc12 [Compound 19d] | 70.8 |
| C/C(=C\c1c2ccccc2cc2ccccc12)[N+](=O)[O-] [Compound 19b, (E)-9-(2-nitroprop-1-en-1-yl)anthracene] | 99.8 |
| ClCc1c2ccccc2cc2ccccc12 [Compound 27, 9-(chloromethyl)anthracene] | 102 |
| O=[N+]([O-])/C=C/c1c2ccccc2c(Br)c2ccccc12 [Compound 19h, (E)-9-Bromo-10-(2-Nitrovinyl)Anthracene] | 51.2 |
| CC/C(=C\c1c2ccccc2c(Cl)c2ccccc12)[N+](=O)[O-] [Compound 19f, (E)-9-chloro-10-(2-nitrobut-1-en-1-yl)anthracene] | 96.6 |
| C/C(=C\c1c2ccccc2c(Cl)c2ccccc12)[N+](=O)[O-] [Compound 19e] | 105 |

Same assay, conditions: MUTU-I, 24 h, read-out: % Viable Cells Remaining MUTU-1, 10 µM, 24 h

| Compound | viability at 10 µM [%] |
| --- | --- |
| N#CCc1c2ccccc2cc2ccccc12 [Compound 28, 2-(anthracen-9-yl)acetonitrile] | 88.8 |
| CN(C)C(=O)c1c2ccccc2cc2ccccc12 [Compound 33b] | 90.1 |
| O=[N+]([O-])/C=C/c1c2ccccc2c(Cl)c2ccccc12 [Compound 19d] | 7.6 |
| C/C(=C\c1c2ccccc2cc2ccccc12)[N+](=O)[O-] [Compound 19b, (E)-9-(2-nitroprop-1-en-1-yl)anthracene] | 88.2 |
| ClCc1c2ccccc2cc2ccccc12 [Compound 27, 9-(chloromethyl)anthracene] | 93.8 |
| O=[N+]([O-])/C=C/c1c2ccccc2c(Br)c2ccccc12 [Compound 19h, (E)-9-Bromo-10-(2-Nitrovinyl)Anthracene] | 3.36 |
| CC/C(=C\c1c2ccccc2c(Cl)c2ccccc12)[N+](=O)[O-] [Compound 19f, (E)-9-chloro-10-(2-nitrobut-1-en-1-yl)anthracene] | 97.5 |
| C/C(=C\c1c2ccccc2c(Cl)c2ccccc12)[N+](=O)[O-] [Compound 19e] | 98.6 |

System: DG-75 Burkitt’s lymphoma cell line
Test: alamarBlue cell viability assay
Settings: 1 µM, 48 h

| Compound | % Viable Cells Remaining DG-75 [%] |
| --- | --- |
| N#CC(C#N)=Cc1c2ccccc2c(Cl)c2ccccc12 [Compound 23b, 2-((10-Chloroanthracen-9-yl)Methylene)Malononitrile] | 85.59 |

Same assay, conditions: 10 µM, 48 h

| Compound | % Viable Cells Remaining DG-75 |
| --- | --- |
| N#CC(C#N)=Cc1c2ccccc2c(Cl)c2ccccc12 [Compound 23b, 2-((10-Chloroanthracen-9-yl)Methylene)Malononitrile] | ~ 55% and 52.84% |
| O=[N+]([O-])/C=C/c1cc2ccccc2c2ccccc12 [Compound 21, (E)-9-(2-Nitrovinyl)phenanthrene] | 62.2% |

Same assay, conditions: Homo sapiens, DG-75, 48 h, read-out: % Viable Cells Remaining DG-75

| Compound | viability at 1 µM [%] | viability at 10 µM [%] |
| --- | --- | --- |
| N#CC(C#N)=Cc1c2ccccc2cc2ccccc12 [Compound 23a] | 104 | 98.1 |

Same assay, conditions: Homo sapiens, DG-75, 48 h, read-out: % Viable Cells Remaining DG-75, 1 µM, 48 h

| Compound | viability at 1 µM [%] |
| --- | --- |
| N#CCc1c2ccccc2cc2ccccc12 [Compound 28, 2-(anthracen-9-yl)acetonitrile] | 93.8 |
| CN(C)C(=O)c1c2ccccc2cc2ccccc12 [Compound 33b] | 96.2 |
| O=[N+]([O-])/C=C/c1c2ccccc2c(Cl)c2ccccc12 [Compound 19d] | 75.1 |
| C/C(=C\c1c2ccccc2cc2ccccc12)[N+](=O)[O-] [Compound 19b, (E)-9-(2-nitroprop-1-en-1-yl)anthracene] | 102 |
| ClCc1c2ccccc2cc2ccccc12 [Compound 27, 9-(chloromethyl)anthracene] | 79 |
| O=[N+]([O-])/C=C/c1c2ccccc2c(Br)c2ccccc12 [Compound 19h, (E)-9-Bromo-10-(2-Nitrovinyl)Anthracene] | 84.8 |
| O=[N+]([O-])/C=C/c1cc2ccccc2c2ccccc12 [Compound 21, (E)-9-(2-Nitrovinyl)phenanthrene] | 99.5 |
| CC/C(=C\c1c2ccccc2c(Cl)c2ccccc12)[N+](=O)[O-] [Compound 19f, (E)-9-chloro-10-(2-nitrobut-1-en-1-yl)anthracene] | 105 |
| C/C(=C\c1c2ccccc2c(Cl)c2ccccc12)[N+](=O)[O-] [Compound 19e] | 82.5 |

Same assay, conditions: Homo sapiens, DG-75, 48 h, read-out: % Viable Cells Remaining DG-75, 10 µM, 48 h

| Compound | viability at 10 µM [%] |
| --- | --- |
| N#CCc1c2ccccc2cc2ccccc12 [Compound 28, 2-(anthracen-9-yl)acetonitrile] | 85.2 |
| CN(C)C(=O)c1c2ccccc2cc2ccccc12 [Compound 33b] | 75 |
| O=[N+]([O-])/C=C/c1c2ccccc2c(Cl)c2ccccc12 [Compound 19d] | 57.1 |
| C/C(=C\c1c2ccccc2cc2ccccc12)[N+](=O)[O-] [Compound 19b, (E)-9-(2-nitroprop-1-en-1-yl)anthracene] | 89.3 |
| ClCc1c2ccccc2cc2ccccc12 [Compound 27, 9-(chloromethyl)anthracene] | 85.5 |
| O=[N+]([O-])/C=C/c1c2ccccc2c(Br)c2ccccc12 [Compound 19h, (E)-9-Bromo-10-(2-Nitrovinyl)Anthracene] | 70 |
| O=[N+]([O-])/C=C/c1cc2ccccc2c2ccccc12 [Compound 21, (E)-9-(2-Nitrovinyl)phenanthrene] | 60 |
| CC/C(=C\c1c2ccccc2c(Cl)c2ccccc12)[N+](=O)[O-] [Compound 19f, (E)-9-chloro-10-(2-nitrobut-1-en-1-yl)anthracene] | 78 |
| C/C(=C\c1c2ccccc2c(Cl)c2ccccc12)[N+](=O)[O-] [Compound 19e] | 99.6 |

System: HG-3 CLL cell line
Test: alamarBlue cell viability assay
Settings: CLL cell, 24 h, read-out: % Viability HG-3, 10 µM, 24 h

| Compound | viability at 10 µM [%] |
| --- | --- |
| O=[N+]([O-])/C=C/c1c2ccccc2c(Cl)c2ccccc12 [Compound 19d] | 97 |
| C/C(=C\c1c2ccccc2cc2ccccc12)[N+](=O)[O-] [Compound 19b, (E)-9-(2-nitroprop-1-en-1-yl)anthracene] | 82 |
| C/C(=C\c1ccc(F)cc1)[N+](=O)[O-] [Compound 11c] | 8.76 |
| O=[N+]([O-])/C=C/c1cc2ccccc2c2ccccc12 [Compound 21, (E)-9-(2-Nitrovinyl)phenanthrene] | 29 |
| C/C(=C\c1c2ccccc2c(Cl)c2ccccc12)[N+](=O)[O-] [Compound 19e] | 87 |

System: PGA-1 CLL cell line
Test: alamarBlue cell viability assay
Settings: 10 µM, 24 h

| Compound | % Viability PGA-1 [%] |
| --- | --- |
| N#CC(C#N)=Cc1c2ccccc2c(Cl)c2ccccc12 [Compound 23b, 2-((10-Chloroanthracen-9-yl)Methylene)Malononitrile] | > 50 |

Same assay, conditions: CLL cell, 24 h, read-out: % Viability PGA-1

| Compound | viability at 10 µM [%] |
| --- | --- |
| N#CC(C#N)=Cc1c2ccccc2cc2ccccc12 [Compound 23a] | > 50 |

Same assay, conditions: CLL cell, 24 h, read-out: % Viability PGA-1, 1 µM, 24 h

| Compound | viability at 1 µM [%] |
| --- | --- |
| CC/C(=C\c1cc(Br)ccc1OC)[N+](=O)[O-] [Compound 10a, (E)-4-bromo-1-methoxy-2-(2-nitrobut-1-en-1-yl)benzene, reference compound] | 96.4 |

Same assay, conditions: CLL cell, 24 h, read-out: % Viability PGA-1, 10 µM, 24 h

| Compound | viability at 10 µM [%] |
| --- | --- |
| O=[N+]([O-])/C=C/c1c2ccccc2c(Cl)c2ccccc12 [Compound 19d] | 51.8 |
| C/C(=C\c1c2ccccc2cc2ccccc12)[N+](=O)[O-] [Compound 19b, (E)-9-(2-nitroprop-1-en-1-yl)anthracene] | 81 |
| C/C(=C\c1ccc(F)cc1)[N+](=O)[O-] [Compound 11c] | 3.7 |
| O=[N+]([O-])/C=C/c1c2ccccc2c(Br)c2ccccc12 [Compound 19h, (E)-9-Bromo-10-(2-Nitrovinyl)Anthracene] | 36.9 |
| CC/C(=C\c1cc(Br)ccc1OC)[N+](=O)[O-] [Compound 10a, (E)-4-bromo-1-methoxy-2-(2-nitrobut-1-en-1-yl)benzene, reference compound] | 0.97 |
| O=[N+]([O-])/C=C/c1cc2ccccc2c2ccccc12 [Compound 21, (E)-9-(2-Nitrovinyl)phenanthrene] | 11.8 |
